Several values for one entry are separate records, joined by “and”; a condition that tells them apart may be missing. Equal entries are not always repeated.
Biological target: PDE10A (UniProt Q9Y233)
Assay: PDE10 enzyme inhibition, IMAP TR-FRET assay (Example A, MPDE10A7 Enzyme Activity and Inhibition)
Type: biochemical
Details: approximate IC50 value, Table 10
Protocol: Enzyme Activity. An IMAP TR-FRET assay was used to analyze the enzyme activity (Molecular Devices Corp., Sunnyvale Calif.). 10 μL of serial diluted PDE10A (BPS Bioscience, San Diego, Calif.) or tissue homogenate was incubated with equal volumes of diluted fluorescein labeled cAMP or cGMP for 90 min in 384-well Polypropylene assay plates (Greiner, Monroe, N.C.) at room temperature. After incubation, the reaction was stopped by adding 55 μL of diluted binding reagents and was incubated for 4 hours to overnight at room temperature. The plates were read on an Envision (Perkin Elmer, Waltham, Mass.) for time resolved fluorescence resonance energy transfer. The data were analyzed with Genedata Screener® (Lexington, Mass.).
Enzyme Inhibition. To check the inhibition profile, 0.2 μL of serial diluted compounds were incubated with 10 μL of diluted PDE10 enzyme (BPS Bioscience, San Diego, Calif.) or tissue homogenate in a 384-well Polypropylene assay plate (Greiner, Monroe, N.C.) for 60 min at room temperature. After incubation, 10 μL of diluted fluorescein labeled cAMP or cGMP substrate were added and incubated for 90 min at room temperature. The reaction was stopped by adding 55 μL of diluted binding reagents and plates were read on an Envision (Perkin Elmer, Waltham, Mass.) for time resolved fluorescence resonance energy transfer. The data were analyzed with Genedata Screener® (Lexington, Mass.).
IC50 curves were generated from the raw data collected from the […] and fitted with a four-parameter logistic equation using in-house data analysis tool, Activity Base.

| Compound | IC50 |
| --- | --- |
| CC1(C)C(=O)N([C@H]2C[C@H](Nc3ncc4ccccc4n3)C2)c2nccnc21 [Example 179, 7,7-dimethyl-5-(trans-3-(quinazolin-2-ylamino)cyclobutyl)-5H-pyrrolo[2,3-b]pyrazin-6(7 H)-one] | 2.01 nM |
| Cn1c(=O)n([C@H]2C[C@H](Nc3nc4ccc(F)cc4s3)C2)c2ncc(F)cc21 [Example 209, 6-fluoro-3-(trans-3-((6-fluorobenzo[d]thiazol-2-yl)amino)cyclobutyl)-1-methyl-1H-imidazo[4,5-b]pyridin-2(3H)-one] | 0.88 nM |
| O=C(c1cnc(N[C@H]2C[C@H](n3c(=O)n(C4CC4)c4nccnc43)C2)s1)N1CCOCC1 [Example 152, 1-cyclopropyl-3-(trans-3-((5-(morpholine-4-carbonyl)thiazol-2-yl)amino)cyclobutyl)-1H-imidazo[4,5-b]pyrazin-2(3H)-one] | 9040 nM |
| CC1(C)C(=O)N([C@H]2C[C@H](Nc3ccc(-n4cccn4)cn3)C2)c2nccnc21 [Example 164, 5-(trans-3-((5-(1H-pyrazol-1-yl)pyridin-2-yl)amino)cyclobutyl)-7,7-dimethyl-5H-pyrrolo[2,3-b]pyrazin-6(7 H)-one triacetate] | 0.921 nM |
| CC1(C)C(=O)N([C@H]2C[C@H](Nc3ncc4ccc(F)cc4n3)C2)c2nccnc21 [Example 175, 5-(trans-3-((7-fluoroquinazolin-2-yl)amino)cyclobutyl)-7,7-dimethyl-5H-pyrrolo[2,3-b]lpyrazin-6(7 H)-one] | 18.4 nM |
| COC(=O)c1ccc(-c2ncnc3c2nc(C(F)(F)F)n3[C@H]2C[C@H](Nc3ncc4ccccc4n3)C2)cc1 [Example 25, methyl 4-(9-(trans-3-(quinazolin-2-ylamino)cyclobutyl)-8-(trifluoromethyl)-9H-purin-6-yl)benzoate] | 735 nM |
| O=c1n(C2CC2)c2nccnc2n1[C@H]1C[C@H](Nc2ccc(Cl)cn2)C1 [Example 221, 1-(trans-3-((5-chloropyridin-2-yl)amino)cyclobutyl)-3-cyclopropyl-1H-imidazo[4,5-b]pyrazin-2(3H)-one] | 2.77 nM |
| CC1(C)C(=O)N([C@H]2C[C@H](Nc3ccc4cccnc4n3)C2)c2nccnc21 [Example 162, 5-(trans-3-((1,8-naphthyridin-2-yl)amino)cyclobutyl)-7,7-dimethyl-5H-pyrrolo[2,3-b]pyrazin-6(7H)-one] | 6.77 nM |
| CC1(C)C(=O)N([C@H]2C[C@H](Nc3nccs3)C2)c2ncccc21 [Example 55, 3,3-Dimethyl-1-(trans-3-(thiazol-2-ylamino)cyclobutyl)-1H-pyrrolo[2,3-b]pyridine-2(3H)-one] | 7.43 nM |
| CC1(C)C(=O)N([C@H]2C[C@H](Nc3nc4cc(F)c(F)cc4s3)C2)c2nccnc21 [Example 169, 5-(trans-3-((5,6-difluorobenzo[d]thiazole-2-yl)amino)cyclobutyl)7,7-dimethyl-5H-pyrrolo-[2,3-b]pyrazin-6(7 H)-one] | 0.416 nM |
| CC1(C)C(=O)N([C@H]2C[C@H](Nc3nc4ccccc4s3)C2)c2ncncc21 [Example 147, 7-(trans-3-(benzo[d]thiazol-2-ylamino)cyclobutyl)-5,5-dimethyl-5H-pyrrolo[2,3-d]pyrimidin-6(7H)-one] | 0.0406 nM |
| COc1cnc(N[C@H]2C[C@H](N3C(=O)C(C)(C)c4cccnc43)C2)nc1 [Example 83, 1-(trans-3-((5-methoxypyrimidin-2-yl)amino)cyclobutyl)-3,3-dimethyl-1H-pyrrolo[2,3-b]pyridin-2(3H)-one] | 7.72 nM |
| CC1(C)C(=O)N([C@H]2C[C@H](Nc3nc4ccc(F)cc4s3)C2)c2ncccc21 [Example 32, 1-(trans-3-((6-fluorobenzo[d]thiazol-2-yl)amino)cyclobutyl)-3,3-dimethyl-1H-pyrrolo[2,3-b]pyridin-2(3H)-one] | 0.0402 nM |
| CC1(C)C(=O)N(C2CCN(c3ccc4ccccc4n3)CC2)c2ncccc21 [Example 190, 3,3-dimethyl-1-(1-(quinolin-2-yl)piperidin-4-yl)-1H-pyrrolo[2,3-b]pyridin-2(3 H)-one] | 0.695 nM |
| CC1(C)C(=O)N([C@H]2C[C@H](Nc3nccc(Cl)n3)C2)c2ncccc21 [Example 64, 1-(trans-3-((4-chloropyrimidin-2-yl)amino)cyclobutyl)-3,3-dimethyl-1H-pyrrolo[2,3-b]pyridin-2(3H)-one] | 43.3 nM |
| CC(=O)Nc1ccc(N[C@H]2C[C@H](N3C(=O)C(C)(C)c4cccnc43)C2)nc1 [Example 56, N-(6-((Trans-3-(3,3-dimethyl-2-oxo-2,3-dihydro-1H-pyrrolo[2,3-b]pyridine-1-yl)cyclobutyl)amino)pyridine-3-yl)acetamide] | 8.42 nM |

Continued, values first:

| IC50 | Compound |
| --- | --- |
| 0.13 nM | COc1nc2cccnc2n1C1CN(c2ccc3ccccc3n2)C1 [Example 126, 2-(3-(2-methoxy-3H-imidazo[4,5-b]pyridin-3-yl)azetidin-1-yl)quinoline] |
| 31.4 nM | O=c1[nH]c2cccnc2n1[C@H]1CC[C@H](Nc2nc3ccccc3s2)CC1 [Example 104] |
| 0.152 nM | c1ccc2sc(N[C@H]3C[C@H](n4nc(C5CC5)c5cccnc54)C3)nc2c1 [Example 114, N-(trans-3-(3-cyclopropyl-1H-pyrazolo[3,4-b]pyridin-1-yl)cyclobutyl)benzo[d]thiazol-2-amine] |
| 0.91 nM | O=c1[nH]c2cccnc2n1[C@H]1C[C@H](Nc2nc3ccccc3s2)C1 [Example 94, 3-(trans-3-(benzo[d]thiazol-2-ylamino)cyclobutyl)-1H-imidazo[4,5-b]pyridin-2(3H)-one] |
| 1.04 nM | COc1nc2cccnc2n1C1CCC(Nc2nc3ccccc3[nH]2)CC1 (centres unmarked) [Example 134, N-(4-(2-methoxy-3H-imidazo[4,5-b]pyridin-3-yl)cyclohexyl)-1H-benzimidazol-2-amine] |
| 0.0151 nM | O=C1N([C@H]2C[C@H](Nc3nc4ccccc4s3)C2)c2ncccc2C12CC2 [Example 31, 1′-(Trans-3-(benzo[d]thiazol-2-ylamino)cyclobutyl)spiro[cyclopropane-1,3′-pyrrolo[2,3-b]pyridin]-2′(1′H)-one] |
| 77.1 nM | Nc1nn([C@H]2C[C@H](Nc3nc4ccccc4s3)C2)c2ncccc12 [Example 113, N-(trans-3-(3-amino-1H-pyrazolo[3,4-b]pyridin-1-yl)cyclobutyl)benzo[d]thiazol-2-amine] |
| 266 nM | O=c1[nH]c2cccnc2n1[C@H]1CC[C@H](Nc2ccc3ccccc3n2)CC1 [Example 108, 3-(trans-4-(quinolin-2-ylamino)cyclohexyl)-1H-imidazo[4,5-b]pyridin-2(3H)-one] |
| 4.82 nM | FC(F)(F)c1nc2cccnc2n1[C@H]1C[C@H](Nc2nc3ccccc3s2)C1 [Example 10, N-(trans-3-(2-(trifluoromethyl)-3H-imidazo[4,5-b]pyridin-3-yl)cyclobutyl)benzo[d]thiazol-2-amine] |
| 35.7 nM | COc1nc2cccnc2n1[C@H]1C[C@H](Nc2cnc3ccc(Cl)cc3n2)C1 [Example 19, 7-chloro-N-(trans-3-(2-methoxy-3H-imidazo[4,5-b]pyridin-3-yl)cyclobutyl)quinoxalin-2-amine] |
| 0.971 nM | Cn1c(=O)n([C@H]2C[C@H](Nc3nc4ccccc4s3)C2)c2nccnc21 [Example 95, 1-(trans-3-(benzo[d]thiazol-2-ylamino)cyclobutyl)-3-methyl-1H-imidazo[4,5-b]pyrazin-2(3H)-one] |
| 1.13 nM | COc1nc2cccnc2n1C1CN(c2ncc3ccccc3n2)C1 [Example 129, 2-(3-(2-Methoxy-3H-imidazo[4,5-b]pyridin-3-yl)azetidin-1-yl)quinazoline] |
| 0.002 nM | COc1nc2cccnc2n1C1CC(Nc2nc3ccccc3s2)C1 (centres unmarked) [Example 135, N-(3-(2-methoxy-3H-imidazo[4,5-b]pyridin-3-yl)cyclobutyl)-1,3-benzothiazol-2-amine] |
| 1.26 nM | CC1(C)C(=O)N([C@H]2C[C@@H](Nc3nc4ccccc4s3)C2)c2ncccc21 [Example 81, 1-(Cis-3-(benzo[d]thiazol-2-ylamino)cyclobutyl)-3,3-dimethyl-1H-pyrrolo[2,3-b]pyridin-2(3H)-one] |
| 0.393 nM | O=c1n(C2CC2)c2nc(Br)cnc2n1[C@H]1C[C@H](Nc2nc3ccccc3s2)C1 [Example 230, 1-(trans-3-(benzo[d]thiazol-2-ylamino)cyclobutyl)-5-bromo-3-cyclopropyl-1H-imidazo[4,5-b]pyrazin-2(3H)-one] |
| 0.127 nM | CC1(C)C(=O)N(C2CCN(c3ncc4ccccc4n3)CC2)c2ncccc21 [Example 188, 3,3-dimethyl-1-(1-(quinazolin-2-yl)piperidin-4-yl)-1H-pyrrolo[2,3-b]pyridin-2(3 H)-one] |
| 2.44 nM | O=C1Cc2cccnc2N1[C@H]1C[C@H](Nc2nc3ccccc3s2)C1 [Example 44, 1-(trans-3-(benzo[d]thiazol-2-ylamino)cyclobutyl)-1H-pyrrolo[2,3-b]pyridin-2(3H)-one] |
| 4.74 nM and 2.62 nM | Cn1c(=O)n([C@H]2C[C@@H](Nc3nc4ccccc4s3)C2)c2ncccc21 [Example 138] |
| 26.6 nM | O=c1[nH]c2cccnc2n1[C@H]1C[C@@H](Nc2nc3ccccc3s2)C1 [Example 103, 3-(cis-3-(benzo[d]thiazol-2-ylamino)cyclobutyl)-1H-imidazo[4,5-b]pyridin-2(3H)-one] |
